“And” between values parts separate entries of the source, which are not always exact repeats. Equal values may be shown once.
Legend:
Assay in all cases: cell-based
hNav1.7 = hNav1.7 (Homo sapiens, UniProt Q15858); settings: IonWorks Quattro; read-out: IC50 Nav1.7
hNav1.3 = hNav1.3 (Homo sapiens, UniProt Q9NY46); settings: IonWorks Quattro; read-out: IC50 Nav1.3
hNav1.4 = hNav1.4 (Homo sapiens, UniProt P35499); settings: for IC50: IonWorks Quattro, read-out: IC50 Nav1.4; for Nav1.4/Nav1.7: ratio of IonWorks Quattro IC50 values
hNav1.5 = hNav1.5 (Homo sapiens, UniProt Q14524); settings: IonWorks Quattro; read-out: IC50 Nav1.5
Chain of hNav1.5 (Q14524 whole entry): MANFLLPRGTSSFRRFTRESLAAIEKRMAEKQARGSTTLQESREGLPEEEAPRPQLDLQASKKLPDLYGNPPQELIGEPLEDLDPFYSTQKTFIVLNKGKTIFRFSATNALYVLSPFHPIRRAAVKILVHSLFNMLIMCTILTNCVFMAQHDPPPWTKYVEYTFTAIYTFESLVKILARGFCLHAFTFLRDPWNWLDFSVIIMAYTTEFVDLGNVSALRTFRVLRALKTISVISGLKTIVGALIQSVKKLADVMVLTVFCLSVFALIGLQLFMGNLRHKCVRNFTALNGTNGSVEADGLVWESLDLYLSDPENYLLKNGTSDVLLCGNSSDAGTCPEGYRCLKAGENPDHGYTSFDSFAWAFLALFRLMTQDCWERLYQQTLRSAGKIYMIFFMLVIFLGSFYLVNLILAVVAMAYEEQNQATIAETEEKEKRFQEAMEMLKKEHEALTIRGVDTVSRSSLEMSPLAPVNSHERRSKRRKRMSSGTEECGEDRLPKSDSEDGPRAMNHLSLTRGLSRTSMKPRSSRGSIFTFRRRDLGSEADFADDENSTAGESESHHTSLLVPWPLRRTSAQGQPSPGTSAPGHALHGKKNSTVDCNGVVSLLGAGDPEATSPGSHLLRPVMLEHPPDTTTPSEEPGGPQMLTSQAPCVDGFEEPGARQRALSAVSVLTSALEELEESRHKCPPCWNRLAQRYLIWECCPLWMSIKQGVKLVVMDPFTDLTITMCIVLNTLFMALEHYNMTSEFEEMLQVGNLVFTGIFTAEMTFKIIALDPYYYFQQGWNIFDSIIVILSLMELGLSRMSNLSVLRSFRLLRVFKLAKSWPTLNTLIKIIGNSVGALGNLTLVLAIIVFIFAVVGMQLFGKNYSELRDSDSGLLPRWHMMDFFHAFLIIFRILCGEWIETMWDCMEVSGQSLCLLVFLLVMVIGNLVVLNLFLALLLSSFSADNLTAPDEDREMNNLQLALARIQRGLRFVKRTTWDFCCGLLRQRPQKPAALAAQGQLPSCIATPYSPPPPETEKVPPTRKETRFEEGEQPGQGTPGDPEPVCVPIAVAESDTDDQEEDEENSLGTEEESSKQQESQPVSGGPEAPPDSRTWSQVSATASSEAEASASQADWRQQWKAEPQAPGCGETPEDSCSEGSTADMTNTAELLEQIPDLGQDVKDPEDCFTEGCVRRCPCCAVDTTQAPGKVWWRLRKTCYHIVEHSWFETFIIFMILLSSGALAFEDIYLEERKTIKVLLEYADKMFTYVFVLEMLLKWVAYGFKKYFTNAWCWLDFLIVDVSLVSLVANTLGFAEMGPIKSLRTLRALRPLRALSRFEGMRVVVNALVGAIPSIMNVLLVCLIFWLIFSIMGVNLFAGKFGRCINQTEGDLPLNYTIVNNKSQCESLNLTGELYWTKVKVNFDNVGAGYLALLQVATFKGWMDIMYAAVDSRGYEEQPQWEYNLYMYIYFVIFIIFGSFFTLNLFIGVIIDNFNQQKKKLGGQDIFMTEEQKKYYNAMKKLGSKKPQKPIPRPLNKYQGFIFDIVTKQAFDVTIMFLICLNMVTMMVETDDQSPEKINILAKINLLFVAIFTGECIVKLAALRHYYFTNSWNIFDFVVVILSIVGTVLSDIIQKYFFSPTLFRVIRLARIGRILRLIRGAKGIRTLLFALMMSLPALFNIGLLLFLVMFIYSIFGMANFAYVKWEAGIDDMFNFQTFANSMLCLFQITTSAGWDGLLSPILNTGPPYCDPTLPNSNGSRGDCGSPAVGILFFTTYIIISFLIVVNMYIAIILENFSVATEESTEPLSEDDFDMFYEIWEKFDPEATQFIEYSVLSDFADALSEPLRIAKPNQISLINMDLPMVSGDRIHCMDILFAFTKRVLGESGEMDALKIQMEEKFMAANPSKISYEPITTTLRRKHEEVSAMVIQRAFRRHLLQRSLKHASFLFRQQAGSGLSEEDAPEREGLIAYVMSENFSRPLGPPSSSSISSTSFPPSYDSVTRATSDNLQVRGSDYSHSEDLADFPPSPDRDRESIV

Chain of hNav1.4 (P35499 whole entry): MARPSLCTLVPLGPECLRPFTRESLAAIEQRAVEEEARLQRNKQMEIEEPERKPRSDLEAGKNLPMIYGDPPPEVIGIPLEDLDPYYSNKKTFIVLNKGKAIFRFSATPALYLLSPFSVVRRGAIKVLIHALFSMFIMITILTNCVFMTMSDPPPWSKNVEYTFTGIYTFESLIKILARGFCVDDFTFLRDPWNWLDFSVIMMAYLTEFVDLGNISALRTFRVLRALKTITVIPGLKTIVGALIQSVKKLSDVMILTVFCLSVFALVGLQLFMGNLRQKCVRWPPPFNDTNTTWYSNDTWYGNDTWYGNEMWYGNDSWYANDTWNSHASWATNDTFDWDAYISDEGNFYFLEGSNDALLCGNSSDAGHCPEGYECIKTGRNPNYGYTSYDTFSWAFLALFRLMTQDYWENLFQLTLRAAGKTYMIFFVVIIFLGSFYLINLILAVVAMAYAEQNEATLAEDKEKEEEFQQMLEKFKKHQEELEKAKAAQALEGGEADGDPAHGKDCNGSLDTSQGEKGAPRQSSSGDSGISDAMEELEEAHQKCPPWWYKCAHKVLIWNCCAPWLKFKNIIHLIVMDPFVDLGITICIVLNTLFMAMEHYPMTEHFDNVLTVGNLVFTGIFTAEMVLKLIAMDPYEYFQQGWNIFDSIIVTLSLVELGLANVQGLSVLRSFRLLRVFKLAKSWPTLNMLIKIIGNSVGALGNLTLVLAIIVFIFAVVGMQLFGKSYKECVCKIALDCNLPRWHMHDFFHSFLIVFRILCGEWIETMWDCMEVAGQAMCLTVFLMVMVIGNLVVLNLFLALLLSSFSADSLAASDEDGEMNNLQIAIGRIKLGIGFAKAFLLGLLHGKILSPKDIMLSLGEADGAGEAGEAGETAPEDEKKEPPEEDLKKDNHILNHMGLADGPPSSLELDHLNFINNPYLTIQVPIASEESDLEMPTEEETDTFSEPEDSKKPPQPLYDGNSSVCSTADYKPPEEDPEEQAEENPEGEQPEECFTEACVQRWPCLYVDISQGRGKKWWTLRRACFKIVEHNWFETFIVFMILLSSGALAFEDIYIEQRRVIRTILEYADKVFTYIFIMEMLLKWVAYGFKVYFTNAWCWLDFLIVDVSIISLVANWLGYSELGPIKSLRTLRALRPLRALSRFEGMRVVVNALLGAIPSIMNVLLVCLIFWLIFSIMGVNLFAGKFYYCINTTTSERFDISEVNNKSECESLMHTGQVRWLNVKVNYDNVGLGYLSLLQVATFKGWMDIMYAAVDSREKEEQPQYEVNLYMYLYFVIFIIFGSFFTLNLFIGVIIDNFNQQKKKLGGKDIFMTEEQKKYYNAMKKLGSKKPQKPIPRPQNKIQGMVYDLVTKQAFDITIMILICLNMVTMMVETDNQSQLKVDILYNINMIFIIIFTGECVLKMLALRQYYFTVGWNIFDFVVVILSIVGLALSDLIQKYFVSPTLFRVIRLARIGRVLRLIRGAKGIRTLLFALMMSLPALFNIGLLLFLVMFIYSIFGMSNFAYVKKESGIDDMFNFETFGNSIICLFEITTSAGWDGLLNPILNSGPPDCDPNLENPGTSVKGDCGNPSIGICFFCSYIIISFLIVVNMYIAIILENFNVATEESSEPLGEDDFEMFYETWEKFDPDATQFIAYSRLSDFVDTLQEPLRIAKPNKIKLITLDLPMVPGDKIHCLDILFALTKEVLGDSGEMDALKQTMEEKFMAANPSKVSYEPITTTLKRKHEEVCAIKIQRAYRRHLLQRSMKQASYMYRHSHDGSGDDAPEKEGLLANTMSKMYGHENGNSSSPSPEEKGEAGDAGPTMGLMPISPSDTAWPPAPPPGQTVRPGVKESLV

SMILES	IC50 (hNav1.7)	IC50 (hNav1.3)	IC50 (hNav1.4)	IC50 (hNav1.5)	Nav1.4/Nav1.7 (hNav1.4)
CC[C@H](C)[C@H](NC(=O)[C@@H](NC(=O)[C@H](CCCCN)NC(=O)[C@H](CCCNC(=N)N)NC(=O)[C@@H]1CSSC[C@@H]2NC(=O)[C@H](C)NC(=O)[C@H](CCCNC(=N)N)NC(=O)[C@H](CCCCN)NC(=O)[C@H](CO)NC(=O)[C@H](CC(=O)O)NC(=O)[C@@H]3CSSC[C@H](NC(=O)[C@H](CCCNC(=N)N)NC(=O)[C@H](CC(C)C)NC(=O)CNC(=O)[C@H](CCC(=O)O)NC(=O)[C@H](CSSC[C@H](NC(=O)[C@@H](N)CCC(=O)O)C(=O)N[C@@H](CCC(N)=O)C(=O)N[C@@H](CCCCN)C(=O)N[C@@H](Cc4c[nH]c5ccccc45)C(=O)N[C@@H](CCSC)C(=O)N[C@@H](Cc4cccc5ccccc45)C(=O)N[C@@H]([C@@H](C)O)C(=O)N3)NC2=O)C(=O)N[C@@H](CCCCN)C(=O)N[C@@H](CC(C)C)C(=O)N[C@@H](Cc2c[nH]c3ccccc23)C(=O)N1)[C@@H](C)CC)C(N)=O [compound 281]	0.032 µM and 0.047 µM	0.4 µM and 0.5 µM	0.7 µM and 0.5 µM	> 5 µM	–
CC[C@H](C)[C@H](NC(=O)[C@@H](NC(=O)[C@H](CCCCN)NC(=O)[C@H](CCCNC(=N)N)NC(=O)[C@@H]1CSSC[C@@H]2NC(=O)[C@H](C)NC(=O)[C@H](CCCNC(=N)N)NC(=O)[C@H](CCCCN)NC(=O)[C@H](CO)NC(=O)[C@H](CC(=O)O)NC(=O)[C@@H]3CSSC[C@H](NC(=O)[C@H](CCC(=O)O)NC(=O)[C@H](CC(C)C)NC(=O)CNC(=O)[C@H](CCC(=O)O)NC(=O)[C@H](CSSC[C@H](NC(=O)[C@@H](N)Cc4cn(CCCOCCOCCOCCOCCOCCOCCOCCOCCOCCOCCN)nn4)C(=O)N[C@@H](CCC(N)=O)C(=O)N[C@@H](CCCCN)C(=O)N[C@@H](Cc4c[nH]c5ccccc45)C(=O)N[C@@H](CCSC)C(=O)N[C@@H](Cc4c[nH]c5ccccc45)C(=O)N[C@@H]([C@@H](C)O)C(=O)N3)NC2=O)C(=O)N[C@@H](CCCCN)C(=O)N[C@@H](CC(C)C)C(=O)N[C@@H](Cc2c[nH]c3ccccc23)C(=O)N1)[C@@H](C)CC)C(N)=O [compound 165]	0.18 µM	> 5 µM	> 5 µM	15.1 µM	28
CC[C@H](C)[C@H](NC(=O)[C@H](Cc1ccc(O)cc1)NC(=O)[C@H](CCCCN)NC(=O)[C@H](CCCNC(=N)N)NC(=O)[C@@H]1CSSC[C@@H]2NC(=O)[C@H](C)NC(=O)[C@H](CCCNC(=N)N)NC(=O)[C@H](CCCCN)NC(=O)[C@H](CO)NC(=O)[C@H](CC(=O)O)NC(=O)[C@@H]3CSSC[C@H](NC(=O)[C@H](CCC(=O)O)NC(=O)[C@H](CC(C)C)NC(=O)CNC(=O)[C@H](CCC(=O)O)NC(=O)[C@H](CSSC[C@H](NC(=O)[C@@H](N)Cc4ccc(O)cc4)C(=O)N[C@@H](CCC(N)=O)C(=O)N[C@@H](CCCCN)C(=O)N[C@@H](Cc4c[nH]c5ccccc45)C(=O)N[C@@H](CCSC)C(=O)N[C@@H](Cc4c[nH]c5ccccc45)C(=O)N[C@@H]([C@@H](C)O)C(=O)N3)NC2=O)C(=O)N[C@@H](CCCCN)C(=O)N[C@@H](CC(C)C)C(=O)N[C@@H](C(C)C)C(=O)N1)C(N)=O [compound 223]	> 5 µM	> 5 µM	> 5 µM	> 5 µM	–
CC[C@H](C)[C@H](NC(=O)[C@H](Cc1ccc(O)cc1)NC(=O)[C@H](CCCCN)NC(=O)[C@H](CCCNC(=N)N)NC(=O)[C@@H]1CSSC[C@@H]2NC(=O)[C@H](C)NC(=O)[C@H](CCCNC(=N)N)NC(=O)[C@H](CCCCN)NC(=O)[C@H](CO)NC(=O)[C@H](CC(=O)O)NC(=O)[C@@H]3CSSC[C@H](NC(=O)[C@H](CCC(=O)O)NC(=O)[C@H](CC(C)C)NC(=O)CNC(=O)[C@H](CCC(=O)O)NC(=O)[C@H](CSSC[C@H](NC(=O)[C@@H](N)Cc4ccc(O)cc4)C(=O)N[C@@H](CCC(N)=O)C(=O)N[C@@H](CCCCN)C(=O)N[C@@H](Cc4c[nH]c5ccccc45)C(=O)N[C@@H](CCSC)C(=O)N[C@@H](CCCNC(N)=O)C(=O)N[C@@H]([C@@H](C)O)C(=O)N3)NC2=O)C(=O)N[C@@H](CCCCN)C(=O)N[C@@H](CC(C)C)C(=O)N[C@@H](Cc2c[nH]c3ccccc23)C(=O)N1)C(N)=O [compound 213]	5.8 µM	> 7 µM	> 7 µM	> 7 µM	–
CC[C@H](C)[C@H](NC(=O)[C@@H](NC(=O)[C@H](CCCCN)NC(=O)[C@H](CCCNC(=N)N)NC(=O)[C@@H]1CSSC[C@@H]2NC(=O)[C@H](C)NC(=O)[C@H](CCCNC(=N)N)NC(=O)[C@H](CCCCN)NC(=O)[C@H](CO)NC(=O)[C@H](CC(=O)O)NC(=O)[C@@H]3CSSC[C@H](NC(=O)[C@H](CCCNC(N)=O)NC(=O)[C@H](CC(C)C)NC(=O)CNC(=O)[C@H](CCC(=O)O)NC(=O)[C@H](CSSC[C@H](NC(=O)[C@@H](N)Cc4ccc(O)cc4)C(=O)N[C@@H](CCC(N)=O)C(=O)N[C@@H](CCCCN)C(=O)N[C@@H](Cc4c[nH]c5ccccc45)C(=O)N[C@@H](CCSC)C(=O)N[C@@H](Cc4c[nH]c5ccccc45)C(=O)N[C@@H]([C@@H](C)O)C(=O)N3)NC2=O)C(=O)N[C@@H](CCCCN)C(=O)N[C@@H](CC(C)C)C(=O)N[C@@H](Cc2c[nH]c3ccccc23)C(=O)N1)[C@@H](C)CC)C(N)=O [compound 122]	0.04 µM	0.35 µM	0.5 µM	6.8 µM	15
CC[C@H](C)[C@H](NC(=O)[C@H](Cc1ccc(O)cc1)NC(=O)[C@H](CCCCN)NC(=O)[C@H](CCCNC(=N)N)NC(=O)[C@@H]1CSSC[C@@H]2NC(=O)[C@H](C)NC(=O)[C@H](CCCNC(=N)N)NC(=O)[C@H](CCCCN)NC(=O)[C@H](CO)NC(=O)[C@H](CC(=O)O)NC(=O)[C@@H]3CSSC[C@H](NC(=O)[C@H](CCC(=O)O)NC(=O)[C@H](CC(C)C)NC(=O)CNC(=O)[C@H](CCC(=O)O)NC(=O)[C@H](CSSC[C@H](NC(=O)[C@@H](N)Cc4ccc(O)cc4)C(=O)N[C@@H](CCC(N)=O)C(=O)N[C@@H](CCCCN)C(=O)N[C@@H](Cc4c[nH]c5ccccc45)C(=O)N[C@@H](CCSC)C(=O)N[C@@H](CCC(=O)O)C(=O)N[C@@H]([C@@H](C)O)C(=O)N3)NC2=O)C(=O)N[C@@H](CCCCN)C(=O)N[C@@H](CC(C)C)C(=O)N[C@@H](Cc2c[nH]c3ccccc23)C(=O)N1)C(N)=O [compound 217]	> 7 µM	> 7 µM	> 7 µM	> 7 µM	–
CC[C@H](C)[C@H](NC(=O)[C@H](Cc1cn(CCCOCCOCCOCCOCCOCCOCCOCCOCCOCCOCCN)nn1)NC(=O)[C@H](CCCCN)NC(=O)[C@H](CCCNC(=N)N)NC(=O)[C@@H]1CSSC[C@@H]2NC(=O)[C@H](C)NC(=O)[C@H](CCCNC(=N)N)NC(=O)[C@H](CCCCN)NC(=O)[C@H](CO)NC(=O)[C@H](CC(=O)O)NC(=O)[C@@H]3CSSC[C@H](NC(=O)[C@H](CCC(=O)O)NC(=O)[C@H](CC(C)C)NC(=O)CNC(=O)[C@H](CCC(=O)O)NC(=O)[C@H](CSSC[C@H](NC(=O)[C@@H](N)Cc4ccc(O)cc4)C(=O)N[C@@H](CCC(N)=O)C(=O)N[C@@H](CCCCN)C(=O)N[C@@H](Cc4c[nH]c5ccccc45)C(=O)N[C@@H](CCSC)C(=O)N[C@@H](Cc4c[nH]c5ccccc45)C(=O)N[C@@H]([C@@H](C)O)C(=O)N3)NC2=O)C(=O)N[C@@H](CCCCN)C(=O)N[C@@H](CC(C)C)C(=O)N[C@@H](Cc2c[nH]c3ccccc23)C(=O)N1)C(N)=O [compound 187]	1.77 µM	> 5 µM	> 5 µM	15.4 µM	3
CC[C@H](C)[C@H](NC(=O)[C@H](Cc1ccc(O)cc1)NC(=O)[C@H](CCCCN)NC(=O)[C@H](CCCNC(=N)N)NC(=O)[C@@H]1CSSC[C@@H]2NC(=O)[C@H](C)NC(=O)[C@H](CCCNC(=N)N)NC(=O)[C@H](CCCCN)NC(=O)[C@H](CO)NC(=O)[C@H](CC(=O)O)NC(=O)[C@@H]3CSSC[C@H](NC(=O)[C@H](CCC(=O)O)NC(=O)[C@H](CC(C)C)NC(=O)CNC(=O)[C@H](CCC(=O)O)NC(=O)[C@H](CSSC[C@H](NC(=O)[C@@H](N)Cc4ccc(O)cc4)C(=O)N[C@@H](CCC(N)=O)C(=O)N[C@@H](CCCCN)C(=O)N[C@@H](CC(C)C)C(=O)N[C@@H](CCSC)C(=O)N[C@@H](Cc4c[nH]c5ccccc45)C(=O)N[C@@H]([C@@H](C)O)C(=O)N3)NC2=O)C(=O)N[C@@H](CCCCN)C(=O)N[C@@H](CC(C)C)C(=O)N[C@@H](Cc2c[nH]c3ccccc23)C(=O)N1)C(N)=O [compound 196]	> 5 µM	> 5 µM	> 5 µM	> 5 µM	–
CSCC[C@@H]1NC(=O)[C@H](Cc2c[nH]c3ccccc23)NC(=O)[C@H](CCCCN)NC(=O)[C@H](CCC(N)=O)NC(=O)[C@@H](NC(=O)[C@@H](N)Cc2ccc(O)cc2)CSSC[C@@H]2NC(=O)[C@@H]3CSSC[C@@H](C(=O)N[C@@H](CCCNC(=N)N)C(=O)N[C@@H](CCCCN)C(=O)N[C@@H](Cc4ccc(O)cc4)C(=O)N[C@@H](CCC(=O)O)C(N)=O)NC(=O)[C@H](Cc4c[nH]c5ccccc45)NC(=O)[C@H](CC(C)C)NC(=O)[C@H](CCCCN)NC(=O)[C@H](CSSC[C@H](NC(=O)[C@H]([C@@H](C)O)NC(=O)[C@H](Cc4c[nH]c5ccccc45)NC1=O)C(=O)N[C@@H](CC(=O)O)C(=O)N[C@@H](CO)C(=O)N[C@@H](CCCCN)C(=O)N[C@@H](CCCNC(=N)N)C(=O)N[C@@H](C)C(=O)N3)NC(=O)[C@H](CCC(=O)O)NC(=O)[C@H](CC(C)C)NC(=O)CNC(=O)[C@H](CCC(=O)O)NC2=O [compound 245]	4.7 µM	> 5 µM	> 5 µM	> 5 µM	–

From patent US9636418B2 (priority 2013, dated 2017)
